Among the data in ChEMBL document CHEMBL3272142, “Analgesics and narcotic antagonists in the benzomorphan and 8-oxamorphinan series. 5” (1978) are ED50 values, retold here.

Bounds are passed on as bounds.

Holding throughout (assay type): functional
The subject of experiment [1] is Mus musculus. The experiment is described as follows: Analgesic activity in sc dosed mouse assessed as phenylquinone-induced writhing measured for 10 mins.
Experiment [2] deals with Mus musculus. The experiment is described as follows: Narcotic antagonist activity in sc dosed mouse assessed as reversal of oxymorphone-induced straub tail response administered 10 mins before oxymorphone challenge.
In experiment [3] the test system is Rattus norvegicus. The experiment is described as follows: Analgesic activity in sc dosed rat assessed as phenylquinone-induced writhing measured for 10 mins. A general note: An intraperitoneal irritant provokes the stretching counted in writhing tests.
Experiment [4] has as its system Mus musculus. The experiment is described as follows: Narcotic antagonist activity in sc dosed mouse assessed as reversal of oxymorphone-induced narcosis.
The species named for experiment [5] is Rattus norvegicus. The experiment is described as follows: Antagonist activity in rat assessed as morphine-induced analgesia by […] tail flick test. Background: In hot-plate and tail-flick tests a longer latency is read as antinociception.
The mark [6] stands for this setting: Mus musculus, sc, 10 min, read-out: ED50.
Setting [7] is: Mus musculus, sc, read-out: ED50.

A word on the ED50: it is the dose that gives a 50% effect, or the effect in half of the subjects. With `C[C@@]12OCCC[C@@]13CCN(CC1CC1)[C@@H]2Cc1ccc(O)cc13` (stereo in doubt; 6d), the ED50 is 0.19 mg/kg in the experiment with Mus musculus [1] and 0.61 mg/kg in the experiment on Mus musculus [2].
For `C[C@@]12OCCC[C@@]13CCN(CC1CCC1)[C@@H]2Cc1ccc(O)cc13`, the ED50 in the experiment on Mus musculus [1] (setting [6]) amounted to 0.068 mg/kg; with Mus musculus [2] (setting [7]), 23 mg/kg.
For `Oc1ccc2c(c1)[C@@]13CCCO[C@H]1[C@@H](C2)N(CC1CCC1)CC3`, the results for the ED50 in the experiment with Mus musculus [1] (setting [6]) and with Mus musculus [2] (setting [7]) were 0.15 mg/kg and 10 mg/kg, respectively.
As to `Oc1ccc2c(c1)[C@@]13CCCO[C@H]1[C@@H](C2)N(CC1CC1)CC3` (stereo in doubt; (-)-6c), the ED50 is 0.013 mg/kg with Mus musculus [1]; 0.26 mg/kg in the experiment on Mus musculus [2]; 0.09 mg/kg with Rattus norvegicus [3]; 0.04 mg/kg in the experiment on Mus musculus [4]; 0.097 mg/kg in the experiment listed under Rattus norvegicus [5].
For `C[C@]12OCCC[C@@]13CCN(CC1CC1)[C@@H]2Cc1ccc(O)cc13`, the values for the 50% effective dose (ED50) in the experiment with Mus musculus [1] (setting [6]) and in the experiment with Mus musculus [2] (setting [7]) were 35 mg/kg and 6 mg/kg, respectively.
In the same order, the values of `CN1CC[C@]23CCCO[C@]2(C)[C@H]1Cc1ccc(O)cc13` are > 40 mg/kg and > 40 mg/kg.
`CC(C)=CCN1CC[C@]23CCCO[C@@]2(C)[C@H]1Cc1ccc(O)cc13`: the ED50 with Mus musculus [1] (setting [6]) is 0.18 mg/kg; in the experiment with Mus musculus [2] (setting [7]), > 40 mg/kg.
In the same order, the values of `CN1CC[C@]23CCCO[C@@H]2[C@H]1Cc1ccc(O)cc13` are 30 mg/kg and > 40 mg/kg.
Take `Oc1ccc2c(c1)[C@@]13CCCC[C@@]1(O)[C@@H](C2)N(CC1CC1)CC3` [OXILORPHAN]: the ED50 in the experiment on Mus musculus [1] (setting [6]) turned out to be 12.8 mg/kg; in the experiment on Mus musculus [2] (setting [7]) it was 0.19 mg/kg; with Rattus norvegicus [3], 8 mg/kg; in the experiment on Mus musculus [4] it was 0.03 mg/kg; in the experiment filed under Rattus norvegicus [5], 0.012 mg/kg.
For the compound `Oc1ccc2c(c1)[C@@]13CCCO[C@H]1[C@@H](C2)N(CC1CC1)CC3` (stereo in doubt; 6c), the ED50 in the experiment with Mus musculus [1] amounted to 0.03 mg/kg; with Mus musculus [2] it was 0.3 mg/kg.
With `CN1CC[C@]23CCCO[C@H]2[C@H]1Cc1ccc(O)cc13`, the ED50 in the experiment on Mus musculus [1] (setting [6]) was 0.6 mg/kg; in the experiment with Mus musculus [2] (setting [7]), > 40 mg/kg.
In the case of `Oc1ccc2c(c1)[C@@]13CCCC[C@@]1(O)[C@@H](C2)N(CC1CCC1)CC3` [BUTORPHANOL], the ED50 in the experiment with Mus musculus [1] (setting [6]) is 0.051 mg/kg; in the experiment with Mus musculus [2] (setting [7]), 0.98 mg/kg; with Rattus norvegicus [3], 0.04 mg/kg; in the experiment on Mus musculus [4], 0.27 mg/kg; in the experiment filed under Rattus norvegicus [5], 0.43 mg/kg.
In the case of `C=CCC12CCN(CC3CC3)C(Cc3ccc(O)cc31)[C@]2(C)O` (stereo partly specified), the ED50 with Mus musculus [1] (setting [6]) is > 40 mg/kg; in the experiment with Mus musculus [2] (setting [7]), 0.8 mg/kg.
In the same order, the values of `CC1CC23CCN(CC4CC4)C(Cc4ccc(O)cc42)C3(C)O1` (stereo unspecified) are > 40 mg/kg and 5 mg/kg.
As to `Oc1ccc2c(c1)[C@@]13CCCO[C@H]1[C@@H](C2)N(CC1CC1)CC3` (stereo in doubt; (+)-6c), the ED50 in the experiment on Mus musculus [1] and with Mus musculus [2] was >40 mg/kg throughout.
For `C[C@]12OCCC[C@@]13CCN(CC1CCC1)[C@@H]2Cc1ccc(O)cc13`, the figures for the 50% effective dose (ED50) with Mus musculus [1] (setting [6]) and in the experiment with Mus musculus [2] (setting [7]) were 16 mg/kg and 5 mg/kg, respectively.
In the same order, the values of `C=CCC12CCN(C)C(Cc3ccc(O)cc31)[C@@H]2O` (stereo partly specified) are > 40 mg/kg and > 40 mg/kg.
For the compound `Oc1ccc2c(c1)[C@@]13CCCC[C@H]1[C@@H](C2)N(CC1CC1)CC3` [CYCLORPHAN], the ED50 in the experiment with Mus musculus [1] (setting [6]) is 0.013 mg/kg; with Mus musculus [2] (setting [7]), 0.32 mg/kg; with Rattus norvegicus [3], 0.028 mg/kg; with Mus musculus [4], 0.1 mg/kg; in the experiment filed under Rattus norvegicus [5], 0.032 mg/kg.
For the compound `CN1CC[C@]23CCCO[C@@]2(C)[C@H]1Cc1ccc(O)cc13`, the figures for the 50% effective dose (ED50) in the experiment with Mus musculus [1] (setting [6]) and in the experiment with Mus musculus [2] (setting [7]) were 0.03 mg/kg and > 40 mg/kg, respectively.
For `CC1CC23CCN(C)C(Cc4ccc(O)cc42)C3O1` (stereo unspecified), in that order: 1.8 mg/kg and > 40 mg/kg.
For `Oc1ccc2c(c1)[C@@]13CCCO[C@@H]1[C@@H](C2)N(CC1CC1)CC3`, in that order: 8.4 mg/kg and 20 mg/kg.
In the same order, the values of `C=CCC12CCN(CC3CCC3)C(Cc3ccc(O)cc31)[C@]2(C)O` (stereo partly specified) are 1.3 mg/kg and 10 mg/kg.
As to `C=CCC12CCN(CC3CCC3)C(Cc3ccc(O)cc31)[C@@H]2O` (stereo partly specified), the median effective dose (ED50) in the experiment on Mus musculus [1] (setting [6]) came to 11 mg/kg; in the experiment with Mus musculus [2] (setting [7]) it was 4.5 mg/kg.
As for `C[C@@]12OCCC[C@@]13CCN(CC1CC1)[C@@H]2Cc1ccc(O)cc13` (stereo in doubt; (+)-6d), the 50% effective dose (ED50) in the experiment with Mus musculus [1] and with Mus musculus [2] was >40 mg/kg each time.
Regarding `C[C@@]12OCCC[C@@]13CCN(CC1CC1)[C@@H]2Cc1ccc(O)cc13` (stereo in doubt; (-)-6d), the ED50 worked out at 0.105 mg/kg in the experiment with Mus musculus [1]; 0.2 mg/kg in the experiment on Mus musculus [2]; 0.2 mg/kg with Rattus norvegicus [3]; 0.014 mg/kg in the experiment with Mus musculus [4]; 0.021 mg/kg in the experiment filed under Rattus norvegicus [5].
On to `C=CCN1CC[C@]23CCCO[C@@]2(C)[C@H]1Cc1ccc(O)cc13`, for which the ED50 in the experiment on Mus musculus [1] (setting [6]) stood at 28 mg/kg; in the experiment on Mus musculus [2] (setting [7]), 1 mg/kg.
For `CC1CC23CCN(C)C(Cc4ccc(O)cc42)C3(C)O1` (stereo unspecified), the ED50 is 0.4 mg/kg in the experiment with Mus musculus [1] (setting [6]) and > 40 mg/kg with Mus musculus [2] (setting [7]).
On to `C=CCC12CCN(CC3CC3)C(Cc3ccc(O)cc31)[C@@H]2O` (stereo partly specified), for which the 50% effective dose (ED50) in the experiment on Mus musculus [1] (setting [6]) worked out at 0.23 mg/kg; in the experiment with Mus musculus [2] (setting [7]), 1.9 mg/kg.
